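Each compound was tested at five concentrations against cells in 96-well plates for 48 hours. The concentration for 50% growth inhibition is given as GI50.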 Activity calls are given as the source filed them. Rule as the data show it: active = GI50 up to about 1.1 µM and inactive = higher. Where a SMILES comes first, the peptide text is derived from it. The star is where a group is joined. Boc = CC(C)(C)OC(=O)*; OBn = c1ccc(CO*)cc1
Tests used:
Assay in all cases: inhibition of tumour cell growth, NCI panel, 48 h
[1] = system: UACC-257
[2] = system: HT-29
[3] = system: T47D
[4] = system: HL-60
[5] = system: CAKI-1
[6] = system: LOX IMVI
[7] = system: HCT-116
[8] = system: OVCAR-3
[9] = system: COLO 205
[10] = system: SK-MEL-2
[11] = system: M14
[12] = system: U-251
[13] = system: OVCAR-4
[14] = system: SW-620
[15] = system: NCI-H522
[16] = system: DU-145
[17] = system: A498
[18] = system: IGROV-1
[19] = system: MCF7
[20] = system: UO-31
[21] = system: K562
[22] = system: MDA-N
[23] = system: RPMI-8226
[24] = system: SR
[25] = system: SF-295
[26] = system: SF-539
[27] = system: PC-3
[28] = system: SNB-19
[29] = system: Malme-3M
[30] = system: SK-OV-3
[31] = system: NCI/ADR-RES
[32] = system: SNB-75
[33] = system: EKVX
[34] = system: UACC-62
[35] = system: 786-0
[36] = system: ACHN
[37] = system: MDA-MB-231
[38] = system: HCT-15
[39] = system: TK-10
[40] = system: NCI-H23
[41] = system: SK-MEL-28
[42] = system: NCI-H460
[43] = system: MOLT-4
[44] = system: MDA-MB-435
[45] = system: HOP-92
[46] = system: HCC 2998
[47] = system: SF-268
[48] = system: OVCAR-8
[49] = system: HOP-62
[50] = system: OVCAR-5
[51] = system: CCRF-CEM
[52] = system: SN12C
[53] = system: RXF 393
[54] = system: A549
[55] = system: Hs-578T
[56] = system: SK-MEL-5
[57] = system: KM12
[58] = system: NCI-H226

Compound: COc1ccc(Nc2nc3cc(N)cc(N)c3nc2-c2ccccc2)cc1
- GI50 [1]: 14.4 µM (inactive)
- GI50 [2]: 20.3 µM (inactive)

Compound: CC(C)(C)OC(=O)NC(Cc1ccccc1)C(=O)NC(Cc1ccccc1)C(=O)NCC(=O)OCc1ccccc1 (stereo not drawn) (Boc-Phe-Phe-Gly-OBn; configuration not given here)
- GI50 [3]: 77.6 µM (inactive)
- GI50 [4]: 19.7 µM (inactive)
- GI50 [5]: 57.4 µM (inactive)
- GI50 [6]: 7.93 µM (inactive)
- GI50 [7]: 18.3 µM (inactive)
- GI50 [8]: 20 µM (inactive)
- GI50 [9]: 29.8 µM (inactive)
- GI50 [10]: 33.6 µM (inactive)
- GI50 [11]: 20.8 µM (inactive)
- GI50 [12]: 18.7 µM (inactive)
- GI50 [13]: 24.7 µM (inactive)
- GI50 [14]: 12.8 µM (inactive)
- GI50 [15]: 6 µM (inactive)
- GI50 [16]: 17.9 µM (inactive)
- GI50 [17]: > 100 µM (inactive)
- GI50 [18]: 13.2 µM (inactive)
- GI50 [19]: 51.5 µM (inactive)
- GI50 [20]: 41 µM (inactive)
- GI50 [21]: 12.5 µM (inactive)
- GI50 [22]: 19.9 µM (inactive)
- GI50 [23]: 15.4 µM (inactive)
- GI50 [24]: 18.4 µM (inactive)
- GI50 [25]: > 10 µM (inactive)
- GI50 [26]: 19 µM (inactive)
- GI50 [27]: 16.3 µM (inactive)
- GI50 [28]: 35 µM (inactive)
- GI50 [29]: 44.5 µM (inactive)
- GI50 [1]: > 100 µM (inactive)
- GI50 [30]: 22.8 µM (inactive)
- GI50 [31]: > 100 µM (inactive)
- GI50 [32]: 37.8 µM (inactive)
- GI50 [33]: 45 µM (inactive)
- GI50 [34]: 16.3 µM (inactive)
- GI50 [35]: 17.1 µM (inactive)
- GI50 [36]: 47.3 µM (inactive)
- GI50 [37]: > 10 µM (inactive)
- GI50 [2]: 16.7 µM (inactive)
- GI50 [38]: 17.9 µM
- GI50 [39]: 19.7 µM (inactive)
- GI50 [40]: 22.8 µM (inactive)
- GI50 [41]: 23.3 µM (inactive)
- GI50 [42]: 23 µM (inactive)
- GI50 [43]: 22.2 µM (inactive)
- GI50 [44]: 8.36 µM (inactive)
- GI50 [45]: > 100 µM (inactive)
- GI50 [46]: 16.3 µM (inactive)
- GI50 [47]: 15.3 µM (inactive)
- GI50 [48]: 30.1 µM (inactive)
- GI50 [49]: 31.1 µM (inactive)
- GI50 [50]: 37.5 µM (inactive)
- GI50 [51]: 16.4 µM (inactive)
- GI50 [52]: 21.7 µM (inactive)

Compound: CC(O[Si](c1ccccc1)(c1ccccc1)C(C)(C)C)[C@H](NC(=O)OC(C)(C)C)C(=O)O (stereo partly specified)
- GI50 [3]: 39.8 µM (inactive)
- GI50 [53]: 35 µM (inactive)
- GI50 [4]: 27.3 µM (inactive)
- GI50 [54]: 30.4 µM (inactive)
- GI50 [5]: 40.3 µM (inactive)
- GI50 [7]: 34.2 µM (inactive)
- GI50 [9]: 22.7 µM (inactive)
- GI50 [11]: 38.3 µM (inactive)
- GI50 [12]: 33.1 µM (inactive)
- GI50 [13]: 26.4 µM (inactive)
- GI50 [14]: 29.4 µM (inactive)
- GI50 [16]: > 10 µM (inactive)
- GI50 [17]: 82.6 µM (inactive)
- GI50 [18]: 20.6 µM (inactive)
- GI50 [19]: 27.5 µM (inactive)
- GI50 [20]: 33.9 µM (inactive)
- GI50 [55]: 57.1 µM (inactive)
- GI50 [21]: 46.6 µM (inactive)
- GI50 [22]: 38.7 µM (inactive)
- GI50 [23]: 35.6 µM (inactive)
- GI50 [56]: 21.6 µM (inactive)
- GI50 [24]: 28.2 µM (inactive)
- GI50 [25]: 19.8 µM (inactive)
- GI50 [27]: 26.6 µM (inactive)
- GI50 [28]: 36.1 µM (inactive)
- GI50 [57]: 35.3 µM (inactive)
- GI50 [29]: 50 µM (inactive)
- GI50 [1]: 36.1 µM (inactive)
- GI50 [30]: 30.4 µM (inactive)
- GI50 [31]: 46.7 µM (inactive)
- GI50 [32]: 43.7 µM (inactive)
- GI50 [33]: 33.5 µM (inactive)
- GI50 [35]: 42.4 µM (inactive)
- GI50 [36]: 30.8 µM (inactive)
- GI50 [2]: 32.2 µM (inactive)
- GI50 [38]: 29 µM
- GI50 [39]: 45 µM (inactive)
- GI50 [40]: 33 µM (inactive)
- GI50 [41]: 50 µM (inactive)
- GI50 [42]: 55.6 µM (inactive)
- GI50 [43]: 18.1 µM (inactive)
- GI50 [45]: 29.9 µM (inactive)
- GI50 [46]: 36.2 µM (inactive)
- GI50 [47]: 57.3 µM (inactive)
- GI50 [48]: 42 µM (inactive)
- GI50 [49]: 49.8 µM (inactive)
- GI50 [50]: 75.3 µM (inactive)
- GI50 [51]: 10.2 µM (inactive)

Compound: CC(=O)OCC1OC(n2c3c(c(-c4cccc5ccccc45)c(C#N)c2=S)CCCC3)C(OC(C)=O)C(OC(C)=O)C1OC(C)=O (stereo unspecified)
- GI50 [3]: > 100 µM (inactive)
- GI50 [53]: > 100 µM (inactive)
- GI50 [4]: > 100 µM (inactive)
- GI50 [54]: > 100 µM (inactive)
- GI50 [6]: > 100 µM (inactive)
- GI50 [7]: > 100 µM (inactive)
- GI50 [8]: > 100 µM (inactive)
- GI50 [9]: > 100 µM (inactive)
- GI50 [10]: 20.7 µM (inactive)
- GI50 [11]: 66.7 µM (inactive)
- GI50 [12]: > 100 µM (inactive)
- GI50 [13]: > 100 µM (inactive)
- GI50 [14]: > 100 µM (inactive)
- GI50 [15]: > 100 µM (inactive)
- GI50 [16]: > 100 µM (inactive)
- GI50 [17]: > 100 µM (inactive)
- GI50 [18]: > 100 µM (inactive)
- GI50 [19]: > 100 µM (inactive)
- GI50 [20]: 31.3 µM (inactive)
- GI50 [21]: > 100 µM (inactive)
- GI50 [22]: > 100 µM (inactive)
- GI50 [56]: > 100 µM (inactive)
- GI50 [24]: > 100 µM (inactive)
- GI50 [25]: > 100 µM (inactive)
- GI50 [26]: > 100 µM (inactive)
- GI50 [27]: 27.7 µM (inactive)
- GI50 [28]: > 100 µM (inactive)
- GI50 [57]: > 100 µM (inactive)
- GI50 [29]: > 100 µM (inactive)
- GI50 [1]: > 100 µM (inactive)
- GI50 [30]: > 100 µM (inactive)
- GI50 [31]: > 100 µM (inactive)
- GI50 [33]: 25.8 µM (inactive)
- GI50 [34]: > 100 µM (inactive)
- GI50 [35]: > 100 µM (inactive)
- GI50 [36]: > 100 µM (inactive)
- GI50 [37]: > 100 µM (inactive)
- GI50 [2]: > 100 µM (inactive)
- GI50 [38]: > 100 µM
- GI50 [39]: > 100 µM (inactive)
- GI50 [40]: > 100 µM (inactive)
- GI50 [41]: > 100 µM (inactive)
- GI50 [42]: > 100 µM (inactive)
- GI50 [43]: > 100 µM (inactive)
- GI50 [44]: > 100 µM (inactive)
- GI50 [45]: 0.112 µM (active)
- GI50 [46]: > 100 µM (inactive)
- GI50 [47]: > 100 µM (inactive)
- GI50 [48]: > 100 µM (inactive)
- GI50 [49]: > 100 µM (inactive)
- GI50 [50]: > 100 µM (inactive)
- GI50 [51]: > 100 µM (inactive)
- GI50 [52]: > 100 µM (inactive)
- GI50 [58]: > 100 µM (inactive)

Source: ChEMBL document CHEMBL1201862, “PubChem BioAssay data set” (2004)
